The values below come from patent publication US20230136215A1, “PRODUCTION OF DUNALIELLA” (University of Greenwich, priority 2017, published 2023).

One data set concerns D. salina cultures. Description: D. salina cultures treated with herbicides; carotenoid contents determined by HPLC. The data set is classed as cell-based, Dunaliella salina. Particulars: for content of phytoene per cell: continuous white LED light ~200 μmol m^−2 s^−1, 25° C.; for yield of phytoene, red light versus white light: herbicide-treated cultures, Table 4; for 9-cis/all-trans β-carotene ratio: norflurazon-treated.

A short description of data set [1]: Effect of red and blue LED light on all-trans β-carotene dissolved in chloroform. The data set is classed as physicochemical. To be noted: 2.4 μM in chloroform, 24 h, 25° C. As for the experimental part: FIGS. 10A-10C: Effect of red and blue LED light on all-trans β-carotene. (FIG. 10A) Red light under nitrogen; (FIG. 10B) Red light in air; (FIG. 10C) Blue light in air. All-trans-β-carotene (Sigma) was dissolved in chloroform to a final concentration of 2.4 μM and vials were thoroughly flushed with either nitrogen or air, sealed and incubated for 24 h at 25° C. under LED lights. (FIG. 10A) red, nitrogen; (FIG. 10B), red, air; (FIG. 10C) blue, nitrogen or air. The same results as (FIG. 10A) were obtained for dark under nitrogen or air. […] In (FIG. 10A) (red light under nitrogen) no reaction of β-carotene was detected.

[2] abbreviates: Table 5, red light, 200 μmol m^−2 s^−1, 48 h.
[3] abbreviates: 20 μM chlorpropham, 6-days cultivation in white LED light.
Where [4] appears, read: 20 μM chlorpropham, white light 1500 μmol m^−2 s^−1, 4 days' cultivation.
Setting [5] is: Table 5 (red light), 1500 μmol m^−2 s^−1, 96 h.
[6] abbreviates: Table 5, red light, 200 μmol m^−2 s^−1, 144 h.
The mark [7] stands for this setting: red light 200 pmol m^−2 s^−1 continuous, 48 h, chlorpropham 10 μM, Norflurazon 5 µM.
[8] abbreviates: red light 200 μmol m^−2 s^−1 continuous, 48 h, chlorpropham 10 μM, Norflurazon 5 µM.
Setting [9] is: white LED light 200 pmol m^−2 s^−1 continuous, 48 h, chlorpropham 10 μM, Norflurazon 5 µM.
Where [10] appears, read: white LED light 200 μmol m^−2 s^−1 continuous, 48 h, chlorpropham 10 μM, Norflurazon 5 µM.

In the case of `O=C(Nc1ccc(F)cc1F)c1cccnc1Oc1cccc(C(F)(F)F)c1` [Diflufenican, N-(2,4-difluorophenyl)-2-[3-(trifluoromethyl)phenoxy]pyridine-3-carboxamide], in the data set on D. salina cultures (setting [2]), the “9-cis β-carotene” value was determined as 10.84 ± 0.19 pg cell^−1, the 9cis of total is recorded as 38%, the “All-trans α-carotene” value is given as 0.34 ± 0.00 pg cell^−1 and the “All-trans β-carotene” value was determined as 2.98 ± 0.11 pg cell^−1. In the data set on D. salina cultures (setting [2]), the Phytoene stood at 12.78 ± 0.40 pg cell^−1, the Phytofluene is reported as 0.01 ± 0.00 pg cell^−1, the “Total carotenoids (sum)” value came out at 28.64 pg cell^−1 and the lutein is given as 0.56 ± 0.01 pg cell^−1. In the data set with D. salina cultures (setting [2]), the “phytoene + phytofluene of total” value is 45% and the zeaxanthin stood at 1.13 ± 0.06 pg cell^−1.

As for `CCNC(=O)[C@@H](C)OC(=O)Nc1ccccc1` [carbetamide, (R)-1-(ethylcarbamoyl)ethyl carbanilate], the “content of phytoene per cell” value with D. salina cultures was “increased”.

On to `O=C(O)CNCP(=O)(O)O` [glyphosate, 2-(phosphonomethylamino)acetic acid], for which, in the data set with D. salina cultures, the “content of phytoene per cell” value is listed as “increased”.

On to `CC1=C(/C=C/C(C)=C/C=C/C(C)=C/C=C/C=C(C)/C=C/C=C(C)/C=C/C2=C(C)CCCC2(C)C)C(C)(C)CCC1` [all-trans β-carotene, all-trans-β-carotene], for which the “destruction of all-trans β-carotene” value is “fully destroyed” in data set [1] (blue light, nitrogen or air) and 40% in data set [1] (red light under air). Also, the “reaction of β-carotene” value in data set [1] (red light under nitrogen) is recorded as “no reaction”.

Turning to `CC(C)OC(=O)Nc1cccc(Cl)c1` [chlorpropham, isopropyl N-(3-chlorophenyl) carbamate], in the data set on D. salina cultures (setting [3]), the “final phytoene concentration in the cultures” value amounted to 3.55 ± 0.11 mg/L and the “phytoene content in cells” value turned out to be 25.76±1.58 pg cell^−1. In the data set on D. salina cultures (20 μM chlorpropham, 6-days cultivation in white LED light, compared to untreated cells), the “increase of phytoene content in cells” value is “ca. 50 fold”. The “increase of final phytoene concentration in the cultures” value in the data set with D. salina cultures (20 μM chlorpropham, 6-days cultivation in white LED light, compared to untreated cultures) is on record as 10 fold. Also, in the data set with D. salina cultures (setting [4]), the phytoene content entry is given as “above 30 pg cell^−1” and the phytoene yield was 8.2 mg/L. In the data set on D. salina cultures (setting [5]), the “9-cis β-carotene” value is given as 6.96 ± 0.74 pg cell^−1, the 9cis of total came to 12%, the “All-trans α-carotene” value is 0.44 ± 0.07 pg cell^−1 and the “All-trans β-carotene” value was determined as 17.34 ± 0.97 pg cell^−1. In the data set on D. salina cultures (setting [5]), the Phytoene came to 30.62 ± 1.31 pg cell^−1, the Phytofluene is listed as 1.87 ± 0.12 pg cell^−1, the “Total carotenoids (sum)” value came out at 58.61 pg cell^−1 and the lutein came to 0.61 ± 0.03 pg cell^−1. In addition, in the data set on D. salina cultures (setting [5]), the “phytoene + phytofluene of total” value is listed as 55% and the zeaxanthin is 0.77 ± 0.02 pg cell^−1. Besides, in the data set with D. salina cultures (setting [6]), the “9-cis β-carotene” value was found to be 31.3 ± 2.49 pg cell^−1, the 9cis of total came out at 29%, the “All-trans α-carotene” value is reported as 1.4 ± 0.13 pg cell^−1 and the “All-trans β-carotene” value was found to be 18.34 ± 1.45 pg cell^−1. In addition, in the data set on D. salina cultures (setting [6]), the Phytoene was determined as 51.88 ± 4.53 pg cell^−1, the Phytofluene came to 3.02 ± 0.29 pg cell^−1, the “Total carotenoids (sum)” value amounted to 108.48 pg cell^−1 and the lutein is given as 1.21 ± 0.09 pg cell^−1. Moreover, in the data set with D. salina cultures (setting [6]), the “phytoene + phytofluene of total” value was found to be 51% and the zeaxanthin is given as 1.33 ± 0.10 pg cell^−1. Besides, in the data set with D. salina cultures (compared to untreated cultures), the “increase of cellular content of colorless carotenoids” value is reported as “more than 30 fold” and the “increase of yield of the colorless carotenoids” value is listed as “more than 10 fold”. In addition, the “yield of phytoene, red light versus white light” value in the data set on D. salina cultures (48 h) is on record as “more than doubled”. The Cell density result with D. salina cultures (once chlorpropham was added) was “stopped increasing”. In the data set with D. salina cultures (setting [7]), the “9-cis β-carotene” value was 14.35 ± 1.24 pg cell^−1 and the zeaxanthin is given as 1.05 ± 0.06 pg cell^−1. Further, in the data set with D. salina cultures (setting [8]), the 9cis of total was determined as 39%, the Phytoene came to 10.56 ± 1.53 pg cell^−1, the Phytofluene is reported as 1.58 ± 0.17 pg cell^−1 and the “Total carotenoids (sum)” value is 36.7 pg cell^−1. Besides, in the data set with D. salina cultures (setting [8]), the lutein worked out at 0.74 ± 0.05 pg cell^−1 and the “phytoene + phytofluene of total” value turned out to be 33%. Also, the “phytoene contents under red light versus white light” value in the data set with D. salina cultures (same concentration of chlorpropham treatment) is reported as “higher”. Moreover, the “optimal concentration range of chlorpropham added to the cultures (phytoene production)” value with D. salina cultures (tested 0, 0.1, 1, 10, 20, 50 and 100 μM, 25° C.) lay in the range of 10 to 50 µM. In addition, in the data set on D. salina cultures (setting [9]), the “9-cis β-carotene” value was determined as 13.35 ± 1.88 pg cell^−1 and the zeaxanthin was determined as 0.84 ± 0.09 pg cell^−1. In the data set on D. salina cultures (setting [10]), the 9cis of total is reported as 43%, the Phytoene was 4.41 ± 0.65 pg cell^−1, the Phytofluene is reported as 0.67 ± 0.09 pg cell^−1 and the “Total carotenoids (sum)” value is recorded as 30.99 pg cell^−1. In the data set with D. salina cultures (setting [10]), the lutein amounted to 0.83 ± 0.13 pg cell^−1 and the “phytoene + phytofluene of total” value was determined as 16%.

As to `Nc1cc(Cl)nc(C(=O)O)c1Cl` [aminopyralid, 4-amino-3,6-dichloropyridine-2-carboxylic acid], the “content of phytoene per cell” value in the data set on D. salina cultures was “increased”.

As to `COc1nc(C)nc(NC(=O)NS(=O)(=O)c2ccccc2Cl)n1` [chlorsulfuron, 1-(2-chlorophenyl)sulfonyl-3-(4-methoxy-6-methyl-1,3,5-triazin-2-yl)urea], the “content of phytoene per cell” value in the data set on D. salina cultures was “increased”.

For `CNc1cnn(-c2cccc(C(F)(F)F)c2)c(=O)c1Cl` [Norflurazon, 4-chloro-5-methylamino-2-(3-trifluoromethylphenyl)-pyridazin-3(2H)one], the “yield of phytoene, red light versus white light” value in the data set with D. salina cultures (48 h) is reported as “more than doubled”. Besides, the “amount of phytoene produced under red light compared to white light” value in the data set with D. salina cultures (norflurazon 5 and 50 μM, 200 μmol m^−2 s^−1, 25° C., 48 h) was “significantly higher”. Also, the “9-cis/all-trans β-carotene ratio” value in the data set with D. salina cultures (red LED light 200 μmol m^−2 s^−1, 25° C., 48 h) is 3.9. Besides, the “9-cis/all-trans β-carotene ratio” value in the data set with D. salina cultures (white LED light 200 μmol m^−2 s^−1, 25° C., 48 h) was 1.8. In the data set on D. salina cultures (setting [7]), the “9-cis β-carotene” value is 11.89 ± 0.83 pg cell^−1 and the zeaxanthin amounted to 1.12 ± 0.06 pg cell^−1. Also, in the data set on D. salina cultures (setting [8]), the 9cis of total is recorded as 38%, the Phytoene was 14.42 ± 0.95 pg cell^−1, the Phytofluene is listed as 0.02 ± 0.00 pg cell^−1 and the “Total carotenoids (sum)” value was 31.55 pg cell^−1. Also, in the data set on D. salina cultures (setting [8]), the lutein is given as 0.62 ± 0.02 pg cell^−1 and the “phytoene + phytofluene of total” value was 46%. Also, in the data set on D. salina cultures (setting [9]), the “9-cis β-carotene” value is given as 7.65 ± 0.67 pg cell^−1 and the zeaxanthin came to 0.80 ± 0.07 pg cell^−1. In the data set on D. salina cultures (setting [10]), the 9cis of total stood at 37%, the Phytoene came out at 7.07 ± 0.36 pg cell^−1, the Phytofluene is given as 0.01 ± 0.00 pg cell^−1 and the “Total carotenoids (sum)” value was found to be 20.6 pg cell^−1. In the data set with D. salina cultures (setting [10]), the lutein is 0.52 ± 0.02 pg cell^−1 and the “phytoene + phytofluene of total” value turned out to be 34%.
